Results from patent US6432413B1, “Functional improvements in Fahr disease” (Wayne State University, priority 1998, dated 2002).

Assays:
Type in all cases: in vivo, human
[1] = tested on: patient with Fahr disease; assay: Previous drug treatments of the same Fahr disease patient; conditions: before the study
Description: Prior to initiating and throughout the study, they were maintained on the same doses of baclofen, pergolide, lorazepam, naproxen, diltiazem, probanthiline bromide, and hyoscyamine sulfate. They were placed on isosorbide dinitrate 2 months into the study for ischemic heart disease.

[2] = tested on: patient with familial, idiopathic cerebral calcinosis of the basal ganglia (Fahr disease); assay: Treatment of a patient with Fahr disease: serial neurologic examinations, timed speech and gait, Blessed Dementia Scale
Description: FIG. 2 is a series of graphs showing the effect of treatment on speech and gait. Timed measurements of speech (counting from 1-20 or 20-1) and gait (walking 15 feet and back) were made during two treatment cycles with disodium etidronate. The start and stop times indicate the times at which the medication was begun and discontinued, respectively. Each zero time point for counting 1-20 and walking 15 feet and back represents an average of 2 separate measurements, taken 2 weeks apart.
The patient is a person with hypertension and osteoarthritis who presented with transient right hemiparesis and dysarthria. […] Their major neurologic disabilities prior to treatment were slowness of gait and speech, rigidity, spasticity, cerebellar ataxia, dystonia, and dysphagia. They scored 6 points out of a possible 37 points on the right side of the Blessed Dementia Scale, which measures memory and concentration (6). A score of 0 points is without error. They had been having frequent emotional outbursts and inappropriate hypersexuality.
(§1) After obtaining baseline measurements and informed consent, the patient was begun on 15 mg/kg of disodium etidronate given once daily for two 6 month periods, separated by a 6 month period off of the drug, which was carried out as an internal control and to allow for normal bone mineralization. Serial neurologic examinations were performed by the same physician, and included three quantitative measurements: counting from 1-20, counting from 20-1, and walking 15 feet and back. Instructions were given with the same amount of encouragement for each of the serial measurements. Duplicate measures of counting 1-20 and walking taken two weeks apart were averaged to produce baseline values. There was little variation between the duplicate measures. Baseline and follow-up videotapes of the neurologic exam and CAT scans, to quantify the amount of cerebral calcification, were obtained in a uniform manner.

[3] = tested on: cerebral calcification; assay: Quantitation of cerebral calcification by serial CAT scans
Description: FIG. 1 is a series of axial CAT scans and 3-dimensional reconstructions of basal ganglia calcification. Panels A-D show the extent of cerebral calcification on axial CAT scan images showing involvement of the basal ganglia, thalamus, and cerebellum. Panels E-H are 3-dimensional reconstructions of the basal ganglia, thalami, and pineal gland in different projections. The patient is directly facing the viewer in Panel E, turning to the left by 30 degrees in Panel F, and by 60 degrees in Panel G. Panel H is a projection looking from above and behind the patient, in the same orientation as the CAT scans described above. […]
FIG. 3 is a graph showing quantitation of cerebral calcification. […]
Quantitative measurements of cerebral calcification were obtained using contiguous regions of calcification, defined as those containing pixels greater than 50 Hounsfield units, on each 3 mm coronal image. […]
After obtaining baseline measurements and informed consent, the patient was begun on 15 mg/kg of disodium etidronate given once daily for two 6 month periods, separated by a 6 month period off of the drug, which was carried out as an internal control and to allow for normal bone mineralization. Serial neurologic examinations were performed by the same physician, and included three quantitative measurements: counting from 1-20, counting from 20-1, and walking 15 feet and back. […]

[4] = Side effects during treatment of the Fahr disease patient; conditions: 15 mg/kg once daily
Protocol: as §1
For example, they could button their shirts, which they could not do previously.

[5] = second six month course of treatment

NCC(CC(=O)O)c1ccc(Cl)cc1 (centres unmarked) [baclofen]
improvement with previous drug treatment [1]: minimal improvement

CC(O)(P(=O)(O)O)P(=O)(O)O [disodium etidronate]
gait and speech after stopping the medication ([2]; 6 month period off of the drug): significant deterioration in their gait, but little loss in the gains made with their speech
speech, attention span, emotional outbursts and inappropriate sexual behavior as felt by the patient's family ([2]; after one month on 15 mg/kg once daily): their speech had become clearer, their attention span improved, and their emotional outbursts and inappropriate sexual behavior ceased
bradykinesia and emotional lability ([2]; after treatment): clearly improved
spasticity, cerebellar ataxia, and dystonia ([2]; after treatment): unchanged
Blessed Dementia Scale score ([2]; eighteen months after beginning treatment, previous score 6, 0 points is without error): 2
gait and fine motor skills ([2]; first treatment period, 15 mg/kg once daily): His gait also improved, together with fine motor skills
increase in the speed of speech and gait (counting 1-20, 20-1, walking 15 feet and back) ([2]; over the first six months of treatment): two-fold increase
counting from 1-20 [2, 5]: improvement
counting from 20-1 [2, 5]: some deterioration
gait [2, 5]: again improved
speech [2, 5]: did not change appreciably
other measurements of the speed of motor movement (rapid finger tapping and knee patting) ([2]; videotape before medication vs end of first six month treatment): improved considerably
speech (rate and clarity) ([2]; within four months of treatment, 15 mg/kg once daily): their speech became more rapid and clear
shape and size of the cerebral calcification, qualitative comparison of CAT scans and 3-dimensional reconstructions ([3]; after treatment): did not demonstrate any change
brain calcium content, quantitative measurements from serial CAT scans (density x area) ([3]; before treatment vs after first (6 months) and second (18 months) treatment periods): did not show any reduction in brain calcium content, but perhaps a small increase
side effects [4]: no side effects from the medication, except for transient elevations in serum phosphate

O=C1Nc2ccc(Cl)cc2C(c2ccccc2Cl)=NC1O (centres unmarked) [lorazepam]
improvement with previous drug treatment [1]: minimal improvement

CCCN1C[C@H](CSC)C[C@@H]2c3cccc4[nH]cc(c34)C[C@H]21 [pergolide]
improvement with previous drug treatment [1]: minimal improvement

carbidopa-levodopa
improvement with previous drug treatment [1]: minimal improvement
